Assay results: patent publication US20260224609A1, “TREATMENT OF GUT INFLAMMATORY DISEASES” (priority 2023, published 2026)

What was measured:
[1] = system: Candida albicans; experiment: Candida albicans-induced colitis model; type: in vivo, Balb/C female mice; conditions: after 9 days; 150 mg/kg, curative
Procedure: The inventors have selected a group of Balb/C female mice under estradiol (2.5 mg/kg; 1 injection every 3 days, for 12 days) to develop a Candida albicans-induced colitis model.
The prevention treatment started during estradiol administration, whereas the curative treatments started 2 days after Candida inoculation. The mice were sacrificed 14 days after the inoculation.

[2] = system: 2,4,6-trinitrobenzene sulfonic acid (TNBS)-induced colitis; experiment: TNBS-induced colitis in rats; type: in vivo, rats (Sprague Dauwley)
Procedure: The inventors have developed a model based on 2,4,6-trinitrobenzene sulfonic acid (TNBS)-induced colitis in rats (Sprague Dauwley); 80 mg/kg. Colorectal distension is measured 14 days prior to the TNBS induction, as well as 21, 35 and 49 days after the TNBS induction.
The bacteria B. breve and La have been formulated in sticks for ingestion; the stability having been validated.

[3] = system: Caco-2 cells; experiment: Toxicity test CCK-8 on Caco-2 cells; conditions: inflammatory conditions, LPS 1 mg/ml
From the text: (§1) A cellular model with HT-29 and Caco-2 cells has been established.

[4] = system: HT-29; experiment: Toxicity test CCK-8 on HT-29 cells under LPS; conditions: inflammatory conditions, LPS 10 ng/ml
From the text: as §1

[5] = system: ileo-cecal lesions; experiment: IBD model: ileo-cecal resection in transgenic HLA-B27 rats; type: in vivo; conditions: 6 weeks after resection; treatment from week 8
Procedure: Transgenic HLA-B27 rats have been selected by the inventors as a model for ileo-cecal lesions in Humans (for instance common in Crohn's disease).
Twelve weeks-old rats (40, in five pools) are treated for the resection of distal ileum with proximal colon and the inflammation level was evaluated 6 weeks thereafter.

OC(Cn1cncn1)(Cn1cncn1)c1ccc(F)cc1F [Fluconazole]
mice remaining infected [1]: no mice remaining infected

Oc1cc(O)cc(O)c1 [Spasfon, Phloroglucinol]
macroscopic evaluation (Wallace scoring) ([2]; TNBS condition: 2.25): 1.56 | histological analysis of the inflammation (Ameho) ([2]; TNBS+vehicle: 2.00): 1.56 | pain threshold ([2]; also with Vitamin D): did not increase the pain threshold

C=C1CC[C@H](O)C/C1=C/C=C1\CCC[C@]2(C)[C@@H]([C@H](C)CCCC(C)C)CC[C@@H]12 [Vitamin D, cholecalciferol (Vitamin D3)]
toxicity (CCK-8) [3]: no toxicity | toxicity (CCK-8) [4]: no toxicity

Nc1ccc(O)c(C(=O)O)c1 [pentasa]
post-operative relapses [5]: markedly reduced
